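Compound exposure: 48 hours, 5 concentrations, 96-well plates. TGI is the concentration that stops growth completely.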
Columns and labels:
Test in all cases: DTP human tumour cell line panel, 48 h
[1] = system: EKVX NSCLC
[2] = system: M19-MEL melanoma
[3] = system: COLO 205 colon
[4] = system: CCRF-CEM leukemia
[5] = system: XF 498 CNS
[6] = system: KM20L2 colon
[7] = system: DMS 273 small cell lung
[8] = system: DMS 114 small cell lung
[9] = system: LXFL 529 NSCLC
[10] = system: UACC-257 melanoma
[11] = system: SK-OV-3 ovarian
[12] = system: DLD-1 colon
[13] = system: MCF7 breast
[14] = system: MDA-MB-231 breast

| SMILES | TGI [1] [µM] | TGI [2] [µM] | TGI [3] [µM] | TGI [4] [µM] | TGI [5] [µM] | TGI [6] [µM] | TGI [7] [µM] | TGI [8] [µM] | TGI [9] [µM] | TGI [10] [µM] | TGI [11] [µM] | TGI [12] [µM] | TGI [13] [µM] | TGI [14] [µM] |
| --- | --- | --- | --- | --- | --- | --- | --- | --- | --- | --- | --- | --- | --- | --- |
| O=c1n(CC2CO2)c2ccccc2n1CC1CS1 (centres undefined) | > 100 | > 100 | > 100 | > 100 | > 100 | > 100 | > 100 | > 100 | > 100 |  |  |  |  |  |
| O=[N+]([O-])c1cnccc1-n1nnc2ccccc21 | 90.6 | 49.6 | 72.8 | > 86.5 | 27.1 | > 100 | 27.2 | 26.6 |  | 51.4 | 56.6 | > 96.6 | 36.5 |  |
| CSc1nc(NC2OC(CO)C(O)C(O)C2O)c(N)c(=O)[nH]1 (centres undefined) | > 100 | > 100 | > 100 | > 100 | > 100 | > 100 | > 100 | > 100 |  | > 100 | > 100 | > 100 | > 100 |  |
| COC(=O)C(Cc1cc(OC)c(OC)c(OC)c1)(NC(=O)c1ccccc1)P(=O)(OC)OC (centres undefined) | > 100 | > 100 | > 100 | > 100 | > 100 | > 100 | > 100 | > 100 | > 100 | > 100 | > 100 | > 100 |  |  |
| CC(=O)Nc1ccc(C(=O)NN2C(=O)C(Cl)C2/C=C/c2ccccc2)cc1 (centres undefined) |  | > 100 | > 100 | > 100 |  |  |  |  | > 100 | > 100 | > 100 | > 100 |  |  |
| CC(=O)Nc1ccc2cc3c(nc2n1)c1cccnc1n3S(=O)(=O)c1ccccc1 | > 100 |  | > 100 | > 100 |  |  |  |  |  | > 100 | > 100 |  | > 100 | > 100 |
| COC(=O)CC(c1ccccc1)C(C#N)(OP1(=O)OC(c2ccccc2)C(C)N1C)c1ccccc1 (centres undefined) | > 100 |  | 44.6 | > 100 |  |  |  |  |  | > 100 | > 100 |  | > 100 | > 100 |
| CC(C)[Si](CC1=CCCCC12C(=O)N(COCC[Si](C)(C)C)c1ccccc12)(C(C)C)C(C)C (centres undefined) | > 100 |  | > 100 | 36.6 |  |  |  |  |  | > 100 | > 100 |  | > 100 | > 100 |
| COc1ccc(/C=C2\NC(=S)N(CN3CCOCC3)C2=O)cc1 | > 100 |  | > 100 | > 100 |  |  |  |  |  | > 100 | > 100 |  | > 100 | > 100 |
| O=C1N(c2ccccc2)N=C2c3ccncc3C3=NN(c4ccccc4)C(=O)C123 (centres undefined) | > 100 |  | 6.12 | > 100 |  |  |  |  |  | > 100 | > 100 |  | > 100 | > 100 |
| O=C(CCCN1CCC(Nc2ccc(F)cc2)(c2nnnn2C2CCCCC2)CC1)c1ccc(F)cc1 | 35.4 |  | 37.1 | > 100 |  |  |  |  |  | 57.3 | 11.5 |  | 33.1 | 36 |
| O=C(O)c1cc2sc(C(=O)O)cc2s1 |  | > 100 | > 100 | > 100 | > 100 | > 100 | > 100 | > 100 | > 100 | > 100 | > 100 | > 100 |  |  |
| O=[N+]([O-])C(=C(\Cl)NCCO)/C(Cl)=C(/Cl)Br | 10.4 |  | 2.74 | 2.01 |  |  |  |  |  | 4.4 | 28.5 |  | 2.59 | 3.99 |
| CCOC(=O)C1=CN(Cc2ccccc2)C2ON=C(c3ccc(Cl)cc3)C2C1 (centres undefined) | > 65.1 |  | > 64.1 | > 100 |  |  |  |  |  | > 66.8 | > 85.9 |  | > 64.6 | > 61.6 |
| CCOC(=O)C(C(=O)OCC)C(=S)NC1OC(COC(C)=O)C(OC(C)=O)C(OC(C)=O)C1OC(C)=O (centres undefined) | > 100 |  | > 100 | > 100 |  |  |  |  |  | > 100 | > 100 |  | > 100 | > 100 |
| CC(=O)Oc1ccc(C2SCc3nc4ccccc4n32)cc1 (centres undefined) | > 100 |  | 56.3 | > 100 |  |  |  |  |  | > 100 | 95.3 |  | > 100 | > 100 |
| Cc1nc2c(ccc3[nH]c4ccccc4c32)s1 | 69.1 |  | 37.8 | > 100 |  |  |  |  |  | > 100 | > 100 |  | > 100 | 36.4 |
| COc1cc2oc(=O)cc(C)c2c(OC)c1OC | > 100 |  | > 100 | > 100 |  |  |  |  |  | > 100 | > 100 |  | > 100 | > 100 |
| O=C(O)COc1cccc2ccccc(=O)c12 | > 100 |  | > 100 | > 100 |  |  |  |  |  | > 100 | > 100 |  | > 100 | > 100 |

— PubChem BioAssay (NCI)
